Assay results published in patent publication US20260364186A1, “Chemical Conjugates, Compositions, and Methods of Preparation and Use Thereof” (Transfection Holdings Limited, priority 2022, published 2026).
“Also recorded” adds a separate entry of the source.

How the values were obtained:
[1] = system: NZM11 melanoma cancer cell line; test: FACS uptake of BODIPY FL conjugates, 50 nM, 5 min (Example 1); type: cell-based, human
Description: FIG. 1. Conjugate compounds coupled to BODIPY FL were tested for uptake using 50 nM each conjugate and 5 minute incubation with HEM (human epidermal melanocytes) and melanoma cell line NZM11 (BRAF V600E mutant metastatic melanoma). Mean fluorescent intensities (MFI). For these tests, n=300-500, mean±SD. Results were from a single experiment done in triplicate. Cells were sorted by FACS.
Materials and methods: NZM11 is an adherent metastatic melanoma cell derived from a patient with a subcutaneous lesion on their mid back. This human metastatic melanoma is identified with code CBA-1398 from Cell bank Australia. […] Cells of NZM11 diluted in MEMα media and cells of HEMnDP (primary melanocyte cell line) diluted in media 254 were left to settle in 96-wells microplate for 48 hours. 10 μL of 10 mM stock solutions in DMSO from 138 and pantothenic acid/pantothenic acid derivatives coupled to BODIPY were diluted with HBSS to afford 100 nM solution. Then, 100 nM compounds and DMSO solutions were diluted 1:1 with MEMα media for NZM11 and media 254 for HEMnDP to afford 50 nM solutions. After the 48 hour settle time, media was removed from the cells and 200 μL of 50 nM media solutions were poured to each well and incubated for 5 minutes at 37 °C. […] The FACS results output represented the mean of the fluorescence intensities (in arbitrary units) measured for cells sorted in every sample

[2] = system: melanoma tumours (NZM11 cells); test: Whole body fluorescent cryo-imaging, tumour targeting (Example 13); type: in vivo, mouse; conditions: 0.7 mg/kg i.v., 1 hour post dosing
Description: Materials and methods: Compound 124 was supplied as a 10 mM stock solution in DMSO. NZM011 cells were grown in AMEM, 5% FBS, 5 μg/mL insulin, 5 μg/mL transferrin, 5 ng/mL sodium selenite at 37 °C with 5% O2, 90% N2 5% CO2. The study was performed in 6-week-old male NIH-III athymic mice (strain code 201). Work was carried out by Ichor Biosciences La Fayette NY, USA. Mice were injected on one flank with 5×10^6 NZM11 cells in a 50:50 matrigel:media suspension with a 22G needle. When tumours reach over 500 mm3 the mice were administered intravenously (tail vein) with a solution of compound 124 in phosphate buffered saline at a dose of 0.7 mg/kg. The mice were euthanized at 1 hour or 6 hours post dosing and frozen for cryoimaging. A control mouse received no tumour cells or compound 124 and was euthanized and frozen for cryoimaging at the same time as the treated mice.
Processed animals were cryoimaged imaged at BioInvision in Cleveland Ohio. Whole animal was sectioned at 40 microns and imaged using brightfield at fluorescent modes (503 nm). In-plane pixel size 10 microns. Mouse #1 with tumour on one flank at 500 mm3, treated with compound 124 (0.7 mg/kg) and euthanised 1 hour post treatment. Mouse #6 no tumour or compound 124 treatment euthanised on same day.

Jurkat cells = test: Time course of uptake by FACS (Example 6); type: cell-based, human; conditions: 200 nM
Description: FIG. 6: Time course of uptake for 124, 126, and 132 conjugate compounds. Tests were performed using 200 nM each conjugate and 5, 30 and 60 min incubation with Jurkat cells (immortalized T lymphocytes). Mean fluorescent intensities (MFI). 1,200 cells sorted by FACS. Bars represent mean±SD. Results represents a single experiment done in triplicate.
Materials and methods: Jurkat cells were diluted on RPMI media (supplemented with 10% FBS+1% penicillin-streptomycin) to 400 cells/μL. 5 μL of […] stock solutions in DMSO from 124, 126 and 132 were diluted with 1245 μL of RPMI media (supplemented with 10% FBS+1% penicillin-streptomycin) to give a 400 nM solution. 250 μL of cell suspensions were then added to each well in a 96 well plate and 250 μL of conjugate solutions (giving a 200 nM final concentration). 250 μL of media only was added to the DMSO control wells. Incubation was carried out for 5, 30 and 60 minutes at 37 °C in triplicate wells for each compound and time point.

For `CC1=CC(C)=[N+]2C1=Cc1ccc(CCCn3cc(CCNC(=O)/C=C/NC(=O)[C@H](O)C(C)(C)CO)nn3)n1[B-]2(F)F` [Compound 124], the “uptake (fluorescence intensities)” value [1] was “significant uptake; also recorded: highest intensities; also recorded: best targeting activity, with high uptake into cancer cells”, the “124-specific fluorescence in tumour” value [2] was 124-specific fluorescence was also seen in the region of the implanted tumour and Specific 124-fluorescence was observed in the region of the tumour and specific green fluorescence from compound 124 was seen in the proximity of the tumour and specifically targeted and bound to tumour in vivo and the “incubation time to saturation point” value (Jurkat cells) was no more than 30 min. For the same compound, the “uptake, in words” value (Jurkat cells; 5 to 60 minutes) was “increased between 5 and 30 minutes; also recorded: selective uptake”, the “fluorescent intensity compared to 126 and 132” value (Jurkat cells; 5 minutes) was “double” and the “fluorescent intensity compared to 126 and 132” value (Jurkat cells; 30 minutes) was “six times greater”. The “times greater fluorescence than 126 and 132” value (Jurkat cells; 60 minutes) was 6 times.
